Key:
[1] = tested on: unfractionated human bone marrow; experiment: Human bone marrow colony formation (CFU-GEMM, CFU-GM, BFU-E); format: cell-based; settings: for Colonies (Mean ± S.D.) CFU-GM: agar
Description: Non-adherent, low density, T cell deplated cultures of human bone marrow were plated in methylcellulose (BFU-E, CFU-GEMM, 40,000 cells per plate) or agar (CFU-GM; 40,000 cells per culture) as described by Lu et al., Blood 61:250 (1983). Methylcellulose cultures contained 1 unit per plate erythropoietin and accounts for the background of 48±2 BFU-E in the absence of cytokine. Cultures were incubated in a 5% O2, 5% CO2, 90% N2 atmosphere for 14 days and counted with an inverted microscope.

[2] = biological target: T1, receptors on KG-1 cells (GM-CSF/IL-3 receptors) (Homo sapiens, UniProt P26951+P32927); experiment: Inhibition of 125I-IL-3 binding to KG-1 cells; settings: for KI value on KG-1 cells relative to JM-1 cells: Table F data
T1 construct: endogenous in cells; host or cells: KG-1
T1 sequence (P26951 19-378): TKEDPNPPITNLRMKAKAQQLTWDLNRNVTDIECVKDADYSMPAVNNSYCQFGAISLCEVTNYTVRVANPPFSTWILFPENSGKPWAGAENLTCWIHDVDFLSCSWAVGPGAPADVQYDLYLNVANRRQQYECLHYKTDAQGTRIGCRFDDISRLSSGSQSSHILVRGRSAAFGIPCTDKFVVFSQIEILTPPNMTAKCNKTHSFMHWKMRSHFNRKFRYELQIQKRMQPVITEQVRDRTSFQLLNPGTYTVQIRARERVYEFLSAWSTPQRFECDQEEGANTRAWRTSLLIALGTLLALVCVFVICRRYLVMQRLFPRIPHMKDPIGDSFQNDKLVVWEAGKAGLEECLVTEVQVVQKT
T1 sequence (P32927 17-897): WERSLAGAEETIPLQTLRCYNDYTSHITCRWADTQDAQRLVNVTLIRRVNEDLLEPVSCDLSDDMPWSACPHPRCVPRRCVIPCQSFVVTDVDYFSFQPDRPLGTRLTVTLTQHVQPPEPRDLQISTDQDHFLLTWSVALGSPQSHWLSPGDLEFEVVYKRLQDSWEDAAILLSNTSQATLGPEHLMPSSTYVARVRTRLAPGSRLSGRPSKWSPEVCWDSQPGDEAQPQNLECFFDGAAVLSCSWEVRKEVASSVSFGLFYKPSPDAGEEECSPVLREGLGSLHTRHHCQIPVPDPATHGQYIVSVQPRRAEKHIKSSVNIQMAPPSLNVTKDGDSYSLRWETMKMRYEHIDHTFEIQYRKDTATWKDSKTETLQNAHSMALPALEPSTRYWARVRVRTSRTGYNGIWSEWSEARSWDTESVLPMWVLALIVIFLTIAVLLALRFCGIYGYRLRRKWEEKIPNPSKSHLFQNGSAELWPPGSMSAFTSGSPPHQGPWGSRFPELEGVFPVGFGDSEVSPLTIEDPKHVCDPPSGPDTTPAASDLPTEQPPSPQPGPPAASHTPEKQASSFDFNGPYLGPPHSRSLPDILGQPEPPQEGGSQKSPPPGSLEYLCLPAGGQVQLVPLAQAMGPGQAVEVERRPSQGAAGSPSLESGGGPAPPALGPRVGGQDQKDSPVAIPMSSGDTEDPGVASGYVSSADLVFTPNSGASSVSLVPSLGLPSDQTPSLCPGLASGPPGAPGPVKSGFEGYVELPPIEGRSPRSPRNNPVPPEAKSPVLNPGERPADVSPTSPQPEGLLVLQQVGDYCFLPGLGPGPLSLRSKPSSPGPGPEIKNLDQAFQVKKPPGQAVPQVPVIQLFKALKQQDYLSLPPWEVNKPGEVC
Description: (§1) Briefly, 2-10 μg of recombinant protein in 50 μl 0.2M sodium phosphate, pH 7.2, was combined with 50 μl enzymobead reagent, 2 mCi of sodium iodide in 20 μl of 0.05M sodium phosphate pH 7 and 10 μl of 2.5% β-D-glucose. After 10 min at 25° C., sodium azide (10 μl of 50 mM) and sodium metabisulfite (10 μl of 5 mg/ml) were added sequentially and incubation continued for 5 minutes at 25° C.
(§2) B. Binding Assays. Binding assays were performed using JM-1, KG-1, HL-60 and AML-193 cells.

[3] = biological target: T2, receptors on AML-193 cells (GM-CSF/IL-3 receptors) (Homo sapiens, UniProt P26951+P32927); experiment: Inhibition of 125I-IL-3 binding to AML-193 cells; settings: normalized data, JM-1 as standard
T2 construct: endogenous in cells; host or cells: AML-193
T2 sequence (P26951 19-378): T1 sequence (P26951 19-378)
T2 sequence (P32927 17-897): T1 sequence (P32927 17-897)
Description: as §1, §2

AML-193 cells = experiment: Thymidine incorporation assay, proliferation of AML-193 cells; format: cell-based, human; settings: for Specific Activity: one unit = amount of growth factor for half-maximal thymidine incorporation, AML-193 cells
Description: The cells were split twice weekly and were seeded into fresh medium at a density of 300,000/ml.
These samples were then serially diluted by 3-fold through the additional 11 wells of the microtitre plate. […] Tritiated thymidine ([…]) was added to each well for an additional 6 hours of incubation and the samples were harvested with an automated sample harvester and counted by liquid scintillation. One unit of activity is defined as the amount of growth factor required to stimulate half-maximal thymidine incorporation.

[4] = Table D, 156 pg/ml (GM-CSF + IL-3: 156 ± 156 [sic]), 14 days
[5] = Table D, 312 pg/ml (GM-CSF + IL-3: 312 + 312), 14 days
[6] = Table D, 625 pg/ml (GM-CSF + IL-3: 625 + 625), 14 days
[7] = Table D, 625 pg/ml (GM-CSF + IL-3: 625 + 625), with erythropoietin, background 48 ± 2
[8] = Table D, 1250 pg/ml (GM-CSF + IL-3: 1250 + 1250), 14 days
[9] = Table D, 1250 pg/ml (GM-CSF + IL-3: 1250 + 1250), with erythropoietin, background 48 ± 2
[10] = Table D, 2500 pg/ml (GM-CSF + IL-3: 2500 + 2500), 14 days
[11] = Table D, 2500 pg/ml (GM-CSF + IL-3: 2500 + 2500), with erythropoietin, background 48 ± 2
[12] = Table D, 5000 pg/ml (GM-CSF + IL-3: 5000 + 5000), 14 days
[13] = Table D, 5000 pg/ml (GM-CSF + IL-3: 5000 + 5000), with erythropoietin, background 48 ± 2

Substance: huGM-CSF[Leu^23 Asp^27 Glu^39 ]/Gly4 SerGly5 Ser/huIL-3[Pro^8 Asp^15 Asp^70 ] [GM-CSF/IL-3]
- BFU-E, CFU-GM and CFU-GEMM colony formation relative to IL-3 or GM-CSF alone, or IL-3 and GM-CSF combined ([1]; FIG. 3A-3D): enhances
- Colonies (Mean ± S.D.) CFU-GEMM ([1]; Table D, 78 pg/ml, 14 days): 0 colonies
- Colonies (Mean ± S.D.) CFU-GM ([1]; Table D, 78 pg/ml, 14 days): 16 ± 2 colonies
- Colonies (Mean ± S.D.) BFU-E ([1]; Table D, 78 pg/ml, with erythropoietin, background 48 ± 2): 50 ± 3 colonies
- Colonies (Mean ± S.D.) CFU-GEMM [1, 4]: 1.0 ± 0.4 colonies
- Colonies (Mean ± S.D.) CFU-GM [1, 4]: 24 ± 3 colonies
- Colonies (Mean ± S.D.) BFU-E ([1]; Table D, 156 pg/ml (GM-CSF + IL-3: 156 ± 156 [sic]), with erythropoietin, background 48 ± 2): 49 ± 6 colonies
- Colonies (Mean ± S.D.) CFU-GEMM [1, 5]: 2.5 ± 0.7 colonies
- Colonies (Mean ± S.D.) CFU-GM [1, 5]: 35 ± 2 colonies
- Colonies (Mean ± S.D.) BFU-E ([1]; Table D, 312 pg/ml (GM-CSF + IL-3: 312 + 312), with erythropoietin, background 48 ± 2): 70 ± 4 colonies
- Colonies (Mean ± S.D.) CFU-GEMM [1, 6]: 4.3 ± 0.5 colonies
- Colonies (Mean ± S.D.) CFU-GM [1, 6]: 52 ± 6 colonies
- Colonies (Mean ± S.D.) BFU-E [1, 7]: 83 ± 5 colonies
- Colonies (Mean ± S.D.) CFU-GEMM [1, 8]: 6.8 ± 0.5 colonies
- Colonies (Mean ± S.D.) CFU-GM [1, 8]: 59 ± 2 colonies
- Colonies (Mean ± S.D.) BFU-E [1, 9]: 125 ± 8 colonies
- Colonies (Mean ± S.D.) CFU-GEMM [1, 10]: 10.3 ± 0.9 colonies
- Colonies (Mean ± S.D.) CFU-GM [1, 10]: 74 ± 1 colonies
- Colonies (Mean ± S.D.) BFU-E [1, 11]: 119 ± 5 colonies
- Colonies (Mean ± S.D.) CFU-GEMM [1, 12]: 10.3 ± 1 colonies
- Colonies (Mean ± S.D.) CFU-GM [1, 12]: 97 ± 2 colonies
- Colonies (Mean ± S.D.) BFU-E [1, 13]: 107 ± 5 colonies
- Colonies (Mean ± S.D.) CFU-GM ([1]; Table E, 78 pg/ml): 2 ± 0.3 colonies
- Colonies (Mean ± S.D.) CFU-GEMM ([1]; Table E, 78 pg/ml, media control 2 ± 0): 2.0 ± 0 colonies
- Colonies (Mean ± S.D.) BFU-E ([1]; Table E, 78 pg/ml, media control 44 ± 4): 44 ± 1 colonies
- Colonies (Mean ± S.D.) CFU-GM ([1]; Table E, 156 pg/ml (GM-CSF + IL-3: 156 + 156)): 5 ± 1 colonies
- Colonies (Mean ± S.D.) CFU-GEMM ([1]; Table E, 156 pg/ml, media control 2 ± 0): 2.0 ± 1 colonies
- Colonies (Mean ± S.D.) BFU-E ([1]; Table E, 156 pg/ml, media control 44 ± 4): 47 ± 3 colonies
- Colonies (Mean ± S.D.) CFU-GM ([1]; Table E, 312 pg/ml (GM-CSF + IL-3: 312 + 312)): 8 ± 1 colonies
- Colonies (Mean ± S.D.) CFU-GEMM ([1]; Table E, 312 pg/ml, media control 2 ± 0): 5.5 ± 0.5 colonies
- Colonies (Mean ± S.D.) BFU-E ([1]; Table E, 312 pg/ml, media control 44 ± 4): 71 ± 1 colonies
- Colonies (Mean ± S.D.) CFU-GM ([1]; Table E, 625 pg/ml (GM-CSF + IL-3: 625 + 625)): 15 ± 2 colonies
- Colonies (Mean ± S.D.) CFU-GEMM ([1]; Table E, 625 pg/ml (GM-CSF + IL-3: 625 + 625), media control 2 ± 0): 6.0 ± 1 colonies
- Colonies (Mean ± S.D.) BFU-E ([1]; Table E, 625 pg/ml (GM-CSF + IL-3: 625 + 625), media control 44 ± 4): 97 ± 2 colonies
- Colonies (Mean ± S.D.) CFU-GM ([1]; Table E, 1250 pg/ml (GM-CSF + IL-3: 1250 + 1250)): 23 ± 2 colonies
- Colonies (Mean ± S.D.) CFU-GEMM ([1]; Table E, 1250 pg/ml (GM-CSF + IL-3: 1250 + 1250), media control 2 ± 0): 9.0 ± 0 colonies
- Colonies (Mean ± S.D.) BFU-E ([1]; Table E, 1250 pg/ml (GM-CSF + IL-3: 1250 + 1250), media control 44 ± 4): 127 ± 7 colonies
- Colonies (Mean ± S.D.) CFU-GM ([1]; Table E, 2500 pg/ml (GM-CSF + IL-3: 2500 + 2500)): 45 ± 5 colonies
- Colonies (Mean ± S.D.) CFU-GEMM ([1]; Table E, 2500 pg/ml (GM-CSF + IL-3: 2500 + 2500), media control 2 ± 0): 10.0 ± 1 colonies
- Colonies (Mean ± S.D.) BFU-E ([1]; Table E, 2500 pg/ml (GM-CSF + IL-3: 2500 + 2500), media control 44 ± 4): 125 ± 10 colonies
- Colonies (Mean ± S.D.) CFU-GM ([1]; Table E, 5000 pg/ml (GM-CSF + IL-3: 5000 + 5000)): 43 ± 5 colonies
- Potency in enhancing proliferation of unfractionated human bone marrow cells ([1]; summary of Tables D and E): equivalent in potentcy to a mixture of GM-CSF and IL-3
- KI value on KG-1 cells relative to JM-1 cells [2]: 10-20 fold
- Binding affinity to KG-1 cells relative to JM-1 cells ([2]; normalized data, JM-1 as standard): 41.0 fold
- Binding affinity to AML-193 cells relative to JM-1 cells [3]: 11.1 fold
- Specific activity relative to IL-3 or GM-CSF alone or GM-CSF plus IL-3 combined (AML-193 cells; AML-193 thymidine incorporation): approximately 10 fold
- Specific Activity (AML-193 cells): 1.81 × 10^6 units/mg

Substance: huIL-3[Pro^8 Asp^15 Asp^70 ]/huGM-CSF[Leu^23 Asp^27 Glu^39 ] [IL-3/GM-CSF]
- KI value on KG-1 cells relative to JM-1 cells [2]: 10-20 fold

Substance: GM-CSF: recombinant human granulocyte-macrophage colony-stimulating factor expressed in yeast, comparator
- Colonies (Mean ± S.D.) CFU-GEMM [1, 5]: 0 colonies
- Colonies (Mean ± S.D.) CFU-GM [1, 5]: 16 ± 1 colonies
- Colonies (Mean ± S.D.) CFU-GEMM [1, 6]: 0.3 ± 0.3 colonies
- Colonies (Mean ± S.D.) CFU-GM [1, 6]: 21 ± 2 colonies
- Colonies (Mean ± S.D.) BFU-E [1, 7]: 46 ± 3 colonies
- Colonies (Mean ± S.D.) CFU-GEMM [1, 8]: 1.5 ± 0.3 colonies
- Colonies (Mean ± S.D.) CFU-GM [1, 8]: 33 ± 2 colonies
- Colonies (Mean ± S.D.) BFU-E [1, 9]: 47 ± 4 colonies
- Colonies (Mean ± S.D.) CFU-GEMM [1, 10]: 3.5 ± 0.7 colonies
- Colonies (Mean ± S.D.) CFU-GM [1, 10]: 42 ± 2 colonies
- Colonies (Mean ± S.D.) BFU-E [1, 11]: 61 ± 1 colonies
- Colonies (Mean ± S.D.) CFU-GEMM [1, 12]: 6.8 ± 0.6 colonies
- Colonies (Mean ± S.D.) CFU-GM [1, 12]: 42 ± 4 colonies
- Colonies (Mean ± S.D.) BFU-E [1, 13]: 63 ± 3 colonies
- Specific Activity (AML-193 cells): 9.74 × 10^4 units/mg

From US5073627A (Immunex Corporation, priority 1990, dated 1991)
